Source: US20240090503A1, “FUNGICIDAL OXADIAZOLES AND THEIR MIXTURES” (FMC CORPORATION, priority 2020, published 2024)
Marks after values point to notes of the source that are not given here.

How the values were obtained:
Assay type in all cases: in vivo
[1] = tested on: Zymoseptoria tritici (the causal agent of wheat leaf blotch); assay: Test B: preventive spray on wheat seedlings, wheat leaf blotch, visual disease rating; conditions: wheat seedlings
Summary of the method: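 This is a preventive test: spray application preceded Zymoseptoria tritici spore inoculation by one day. Test suspensions were in acetone/water with 250 ppm PEG400 surfactant, at the listed ppm rate. After 48 h saturated humidity at 24° C and 17 days at 20° C, visual ratings scored control from 0 to 100%.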

[2] = tested on: Phakopsora pachyrhizi (the causal agent of Asian soybean rust); assay: Test A: preventive spray on soybean seedlings, Asian soybean rust, visual disease rating; conditions: soybean seedlings
Summary of the method: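 Preventive test: soybean seedlings received a run-off spray of compound suspended at the set ppm in 50/50 acetone/water plus 250 ppm PEG400, and one day later a P. pachyrhizi spore inoculum. Visual scoring (0 none to 100 full disease control) followed 24 h saturated incubation and 8 days' growth chamber, both at 22° C.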

[3] = tested on: Puccinia recondita f. sp. tritici (the causal agent of wheat leaf rust); assay: Test C: preventive spray on wheat seedlings, wheat leaf rust, visual disease rating; conditions: wheat seedlings
Summary of the method: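 Wheat seedlings sprayed to run-off with compound in acetone/water (50/50) with 250 ppm PEG400, then inoculated with spores the following day. After 24 h saturated humidity at 20° C. and 6 days in growth chamber at 20° C., disease rated visually as % control relative to untreated controls.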

[4] = 250 ppm test suspension, 100 = 100% disease control
[5] = 10 ppm test suspension, 100 = 100% disease control, 0 = no control
[6] = test suspension 10 ppm, 100 = 100% disease control, 0 = no control

Compound: O=C(NCC=C(Cl)Cl)c1coc(Cc2ccc(-c3noc(C(F)(F)F)n3)cc2)n1 [compound 399]
- Test B disease control rating [1, 4]: 10* %
- Test A disease control rating [2, 5]: 100%
- Test C disease control rating [3, 5]: 99%

Compound: CN(C)C(=O)c1coc(Cc2ccc(-c3noc(C(F)(F)F)n3)cc2)n1 [compound 315]
- Test B disease control rating ([1]; test suspension 250 ppm): 97* %
- Test A disease control rating [2, 6]: 100%
- Test C disease control rating ([3]; test suspension 10 ppm): 99%

Compound: CCCc1nn(Cc2ccc(-c3noc(C(F)(F)F)n3)cc2)c(=O)n1C [compound 238]
- Test B disease control rating ([1]; test suspension 250 ppm): 87%
- Test A disease control rating ([2]; test suspension 250 ppm): 100%
- Test C disease control rating ([3]; test suspension 250 ppm): 100%

Compound: CCOC(=O)c1csc(COc2ccc(-c3noc(C(F)(F)F)n3)cc2)n1 [compound 404]
- Test B disease control rating [1, 4]: 0* %
- Test A disease control rating [2, 5]: 0%
- Test C disease control rating [3, 5]: 68%

Compound: CCCOC(=O)c1cnn(COc2ccc(-c3noc(C(F)(F)F)n3)cc2)c1 [compound 217]
- Test B disease control rating ([1]; test suspension 250 ppm): 35* %
- Test A disease control rating [2, 6]: 100%
- Test C disease control rating ([3]; test suspension 10 ppm): 86%

Compound: FC(F)(F)c1nc(-c2ccc(Cn3ncc4ccccc43)cc2)no1 [compound 143]
- Test B disease control rating ([1]; test suspension 250 ppm): 71%
- Test A disease control rating ([2]; test suspension 250 ppm): 100%
- Test C disease control rating ([3]; test suspension 250 ppm): 100%

Compound: CCOC(=O)c1cnn(Cc2ccc(-c3noc(C(F)(F)F)n3)s2)c1 [compound 70]
- Test B disease control rating ([1]; test suspension 255 ppm): 96%
- Test A disease control rating ([2]; test suspension 255 ppm): 100%
- Test C disease control rating ([3]; test suspension 255 ppm): 100%

Compound: Cc1nc(COc2ccc(-c3noc(C(F)(F)F)n3)cc2)cs1 [compound 298]
- Test B disease control rating ([1]; test suspension 250 ppm): 73* %
- Test A disease control rating [2, 6]: 50%
- Test C disease control rating ([3]; test suspension 10 ppm): 0%

Compound: CCOC(=O)c1cccc(Cc2ccc(-c3noc(C(F)(F)F)n3)cc2)c1 [Compound 454]
- Test B disease control rating [1, 4]: 47* %
- Test A disease control rating [2, 5]: 100%
- Test C disease control rating [3, 5]: 0%

Compound: FC(F)(F)c1nc(-c2ccc(CNC3CC3)s2)no1 [compound 191]
- Test B disease control rating ([1]; test suspension 250 ppm): 96* %
- Test A disease control rating ([2]; test suspension 50 ppm): 100%
- Test C disease control rating ([3]; test suspension 50 ppm): 100%

Compound: O=C(NC1CCOC1=O)c1coc(Cc2ccc(-c3noc(C(F)(F)F)n3)cc2)n1 (stereo not drawn) [compound 332]
- Test B disease control rating ([1]; test suspension 250 ppm): 99* %
- Test A disease control rating [2, 6]: 100%
- Test C disease control rating ([3]; test suspension 10 ppm): 99%

Compound: COC(=O)c1cc(COc2ccc(-c3noc(C(F)(F)F)n3)cc2)on1 [compound 312]
- Test B disease control rating ([1]; test suspension 250 ppm): 0* %
- Test A disease control rating [2, 6]: 0%
- Test C disease control rating ([3]; test suspension 10 ppm): 0%

Compound: CN(C)C(=O)C1=NOC(COc2cccc(-c3noc(C(F)(F)F)n3)c2)C1 (stereo not drawn) [compound 502]
- pest or weed control at 250 ppm ([1]; Zymoseptoria tritici, 456 h, 250 ppm test suspension, 100 = 100% disease control): 62%
- pest or weed control at 250 ppm ([2]; Phakopsora pachyrhizi, 216 h, 250 ppm test suspension, 100 = 100% disease control, 0 = no control): 100%
- pest or weed control at 250 ppm ([3]; Puccinia recondita, 168 h, 250 ppm test suspension, 100 = 100% disease control, 0 = no control): 100%

Compound: Cc1ccccc1C(O)c1ccc(-c2noc(C(F)(F)F)n2)cc1 (stereo not drawn) [Compound 497]
- Test B disease control rating [1, 4]: 5* %
- Test A disease control rating [2, 5]: 100%
- Test C disease control rating [3, 5]: 0%

Compound: FC(F)(F)c1nc(-c2ccc(Cn3ccc4cccnc43)cc2)no1 [compound 86]
- Test B disease control rating ([1]; test suspension 250 ppm): 89%
- Test A disease control rating ([2]; test suspension 250 ppm): 100%
- Test C disease control rating ([3]; test suspension 250 ppm): 100%

Compound: CCOC(=O)c1cnn(Cn2nc(-c3noc(C(F)(F)F)n3)ccc2=O)c1 [compound 346]
- Test B disease control rating ([1]; test suspension 250 ppm): 0* %
- Test A disease control rating [2, 6]: 0%
- Test C disease control rating ([3]; test suspension 10 ppm): 0%

Compound: FC(F)(F)c1nc(-c2ccc(OCc3cn4ccccc4n3)cc2)no1 [compound 313]
- Test B disease control rating ([1]; test suspension 250 ppm): 14* %
- Test A disease control rating [2, 6]: 77%
- Test C disease control rating ([3]; test suspension 10 ppm): 0%

Compound: CCCOC(=O)c1cnn(Cc2ccc(-c3noc(C(F)(F)F)n3)o2)c1 [compound 211]
- Test B disease control rating ([1]; test suspension 250 ppm): 70* %
- Test A disease control rating ([2]; test suspension 50 ppm): 100%
- Test C disease control rating ([3]; test suspension 50 ppm): 100%
